According to patent US11083729B2, “Methods of treating cancer with small molecule NF-κB inhibitors” (ImmuneTarget, Inc., priority 2017, dated 2021):

Experiments:
Assay type in all cases: cell-based
[1] = system: MCF-7; experiment: CellTiter-Glo IG50, Example 8, MCF-7; conditions: Homo sapiens, MCF7, MCF-7, 72 hours
Procedure: (§1) Various pancreatic, liver, colon, breast, and stomach cancer cell lines were exposed to the NF-κB inhibitors of the present invention, including, for example, IT-839, IT-843, IT-848, and IT-878, and assessed for IG50 in the CellTiter Glo 2.0 assay.
(§2) The cells were cultured in an atmosphere of 37° C., 5% CO2 and 95% humidity. All culture media and FBS were purchased from GIBCO, Hyclone or Sigma, USA. The media used for cell culture is described in the table below.
(§3) The cells were harvested during the logarithmic growth period and counted. Cell concentrations were adjusted to the appropriate number in appropriate medium and 90 μl cell suspensions were added to 96-well plates. When cells were added, the plates were shaken gently to distribute the cells evenly. Cells were incubated at 37° C. and 5% CO2.
(§4) 3× serial dilutions of test compound stock solutions with respective solvents were prepared. The stock solutions were diluted with culture medium to generate 10× working solutions of the test compounds. 10 μl of the 10× test compound solutions were added to each well in triplicate for each concentration. Plates were incubated for 72 hours in a humidified incubator at 37° C. and 5% CO2.
(§5) CellTiter-Glo (CTG) solution was thawed and equilibrated to room temperature. 50 μl of CTG were added to each well and the contents were mixed for 2 minutes on a plate shaker. Cells were incubated for 10 minutes before luminescence signal was recorded using Envision.
(§6) Cell viability was plotted with GraphPad Prism version 5 and the IG50 was calculated for each cell line. The graphical curves were fitted using a nonlinear regression model with a sigmoidal dose response. IG50 is the concentration of test drug where 100×T/C=50 (the optical density of the test well after a 3-day period of exposure to test drug is T; the control optical density is C).

[2] = system: MIAPACA-2; experiment: CellTiter-Glo IG50, Example 8, MIAPACA-2; conditions: Homo sapiens, MIA PaCa-2, MIAPACA-2, 72 hours
Procedure: as §1, §2, §3, §4, §5, §6

[3] = system: Capan-1; experiment: CellTiter-Glo IG50, Example 8, Capan-1; conditions: Homo sapiens, Capan-1, 72 hours
Procedure: as §1, §2, §3, §4, §5, §6

[4] = system: MDA-MB-231; experiment: CellTiter-Glo IG50, Example 8, MDA-MB-231; conditions: Homo sapiens, MDA-MB-231, 72 hours
Procedure: as §1, §2, §3, §4, §5, §6

[5] = system: PANC-1; experiment: CellTiter-Glo IG50, Example 8, PANC-1; conditions: Homo sapiens, PANC-1, 72 hours
Procedure: as §1, §2, §3, §4, §5, §6

[6] = system: T47D; experiment: CellTiter-Glo IG50, Example 8, T47D; conditions: Homo sapiens, 72 hours
Procedure: as §1, §2, §3, §4, §5, §6

[7] = system: SNU878; experiment: CellTiter-Glo IG50, Example 9 HCC panel, SNU878; conditions: SNU878, 72 hours
Procedure: as §3, §4, §5, §6, §2
(§7) Following the cell culture protocol and data analysis methods described in Example 8, the following IG50 results (in μM) were observed: […]

[8] = system: SNU878; experiment: CellTiter-Glo IG50, Example 10 HCC panel, SNU878; conditions: SNU878, 72 hours
Procedure: as §3, §4, §5, §6, §2
(§8) Following the cell culture protocol and data analysis method described in Example 8, the following IG50 results (in μM) were observed: […]

[9] = system: HUH7; experiment: CellTiter-Glo IG50, Example 10 HCC panel, HUH7; conditions: Homo sapiens, Huh-7, HUH7, 72 hours
Procedure: as §3, §4, §5, §6, §2, §8

[10] = system: HepG2; experiment: CellTiter-Glo IG50, Example 10 HCC panel, HepG2; conditions: Homo sapiens, HepG2, 72 hours
Procedure: as §3, §4, §5, §6, §2, §8

[11] = system: Hep3B; experiment: CellTiter-Glo IG50, Example 9 HCC panel, Hep3B; conditions: Homo sapiens, 72 hours
Procedure: as §3, §4, §5, §6, §2, §7

[12] = system: PLC/PRF/5; experiment: CellTiter-Glo IG50, Example 9 HCC panel, PLC/PRF/5; conditions: Homo sapiens, PLC/PRF/5, 72 hours
Procedure: as §3, §4, §5, §6, §2, §7

[13] = system: PBMC; experiment: CellTiter-Glo IG50, Example 9 HCC panel, PBMC; conditions: 72 hours
Procedure: as §3, §4, §5, §6, §2, §7

[14] = system: PBMC; experiment: CellTiter-Glo IG50, Example 10 HCC panel, PBMC; conditions: 72 hours
Procedure: as §3, §4, §5, §6, §2, §8

[15] = system: Hep3B; experiment: CellTiter-Glo IG50, Example 10 HCC panel, Hep3B; conditions: Homo sapiens, 72 hours
Procedure: as §3, §4, §5, §6, §2, §8

[16] = system: HUH7; experiment: CellTiter-Glo IG50, Example 9 HCC panel, HUH7; conditions: Homo sapiens, Huh-7, HUH7, 72 hours
Procedure: as §3, §4, §5, §6, §2, §7

[17] = system: PLC/PRF/5; experiment: CellTiter-Glo IG50, Example 10 HCC panel, PLC/PRF/5; conditions: Homo sapiens, PLC/PRF/5, 72 hours
Procedure: as §3, §4, §5, §6, §2, §8

[18] = system: JHH5; experiment: CellTiter-Glo IG50, Example 10 HCC panel, JHH5; conditions: JHH5, 72 hours
Procedure: as §3, §4, §5, §6, §2, §8

[19] = system: HepG2; experiment: CellTiter-Glo IG50, Example 9 HCC panel, HepG2; conditions: Homo sapiens, HepG2, 72 hours
Procedure: as §3, §4, §5, §6, §2, §7

[20] = system: JHH5; experiment: CellTiter-Glo IG50, Example 9 HCC panel, JHH5; conditions: JHH5, 72 hours
Procedure: as §3, §4, §5, §6, §2, §7

[21] = system: KATO III; experiment: CellTiter-Glo IG50, Example 8, KATO III; conditions: Homo sapiens, 72 hours
Procedure: as §1, §2, §3, §4, §5, §6

[22] = system: MKN45; experiment: CellTiter-Glo IG50, Example 8, MKN45; conditions: Homo sapiens, MKN-45, MKN45, 72 hours
Procedure: as §1, §2, §3, §4, §5, §6

[23] = system: HCT116; experiment: CellTiter-Glo IG50, Example 8, HCT116; conditions: Homo sapiens, HCT-116, HCT116, 72 hours
Procedure: as §1, §2, §3, §4, §5, §6

[24] = system: HepG2; experiment: CellTiter-Glo IG50, Example 8, HepG2; conditions: Homo sapiens, HepG2, 72 hours
Procedure: as §1, §2, §3, §4, §5, §6

[25] = system: PLC/PRF/5; experiment: CellTiter-Glo IG50, Example 8, PLC/PRF/5; conditions: Homo sapiens, PLC/PRF/5, 72 hours
Procedure: as §1, §2, §3, §4, §5, §6

[26] = system: LoVo; experiment: CellTiter-Glo IG50, Example 8, LoVo; conditions: Homo sapiens, 72 hours
Procedure: as §1, §2, §3, §4, §5, §6

[27] = system: AGS; experiment: CellTiter-Glo IG50, Example 8, AGS; conditions: Homo sapiens, 72 hours
Procedure: as §1, §2, §3, §4, §5, §6

[28] = system: HT-29; experiment: CellTiter-Glo IG50, Example 8, HT-29; conditions: Homo sapiens, HT-29, 72 hours
Procedure: as §1, §2, §3, §4, §5, §6

[29] = system: Hep3B; experiment: CellTiter-Glo IG50, Example 8, Hep3B; conditions: Homo sapiens, 72 hours
Procedure: as §1, §2, §3, §4, §5, §6

Row | IC50 [1] [µM] | IC50 [2] [µM] | IC50 [4] [µM] | IC50 [5] [µM] | IC50 [6] [µM] | IC50 [7] [µM] | IC50 [11] [µM] | IC50 [12] [µM] | IC50 [16] [µM] | IC50 [19] [µM] | IC50 [20] [µM] | SMILES | IC50 [3] [µM] | IC50 [13] [µM] | also measured
1 | > 16 | 0.012 | > 16 | > 16 | > 16 | – | – | – | – | – | – | Nc1ccn([C@@H]2O[C@H](CO)[C@@H](O)C2(F)F)c(=O)n1 [Gemcitabine, gemcitabine, reference compound] | 0.051 | – | –
2 | – | – | – | – | – | 10.7 | 1.81 | 7.66 | 2.72 | 4.14 | 8.11 | CC(C)(C)CCOc1ccc2cc3c(=O)[nH]c(=O)nc-3oc2c1Cl [IT-845] | – | 0.274 | IC50 [8]: 9.8 µM; IC50 [9]: 6.02 µM; IC50 [10]: 6.95 µM; IC50 [14]: 2.4 µM; IC50 [15]: 4.03 µM; IC50 [17]: 9.22 µM; IC50 [18]: 10.1 µM
3 | – | – | – | – | – | 9.15 | > 16 | > 16 | > 16 | > 16 | 8.15 | O=C(O)CCCCCOc1ccc2cc3c(=O)[nH]c(=O)nc-3oc2c1Cl [IT-855] | – | > 16 | –
4 | 6.81 | 10.2 | 2.68 | 5.54 | 4.96 | > 16 | 3.6 | > 16 | 5.16 | 4.53 | 13.3 | CCCCCOc1ccc2cc3c(=O)[nH]c(=O)nc-3oc2c1Cl [IT-843] | > 16 | 1.09 | IC50 [21]: > 16 µM; IC50 [22]: > 16 µM; IC50 [23]: 9.4 µM; IC50 [24]: 3.94 µM; IC50 [25]: > 16 µM; IC50 [26]: 2.89 µM; IC50 [27]: 4.44 µM; IC50 [28]: 6.61 µM; IC50 [29]: 1.42 µM
5 | – | – | – | – | – | > 16 | 3.26 | > 16 | 5.4 | > 16 | > 16 | CCCCCCOc1cc2oc3nc(=O)[nH]c(=O)c-3cc2cc1F [IT-835] | – | 0.985 | –
